This is an account of results in patent US20060135796A1, “Antiangiogenic agents” (priority 2000, published 2006).

Read-outs that look alike come from different tables or passages of the source.

Test [1] has as its system estrogen dependant MCF-7 cells. The test can be described thus: MCF7 proliferation index (estrogenic activity). The conditions noted are these: measure of estrogenic activity. Format: cell-based. An excerpt: All of these analogs have the capacity to from a hydrogen bond with the hydroxy group at position 3 and this may be the reason for their relatively low estrogenic character compared to estradiol. Both the 2-methylhydroxy and 2-formyl derivatives had good antiproliferative activity (IC50<10 microM) in HUVEC cells, whereas the 2-acetyl had poor activity in the same assay.

The next test concerns HUVEC cells. The experiment in a line: HUVEC in vitro cellular proliferation inhibition (BrdU). It is filed as cell-based, human. As to conditions: for antiproliferative activity in HUVEC cells, in words: inhibition of HUVEC / endothelial cell proliferation in vitro. As to the method:
HUVAC In Vitro Cellular Proliferation Inhibition
HUVAC Cells and Culture Conditions
HUVAC Cells were Grown in EGM (Clonetics)
HUVEC cells were plated at 5000 cells/ml in 96-well plates. After allowing the cells to attach overnight, the cells were washed with PBS and incubated in the absence of growth factor for 24 h (EBM, 2% FCS, Clonetics). Cells were treated with increasing concentrations of drug in EBM containing 2% FCS and 10 ng.ml bFGF for 48 h at 37° C. Drug preparation, volumes added and BrdU proliferation assay were performed as indicated above.
(§1) In order to assess the biological activity of modifications at position 16, the anti-proliferative activity of these analogs was evaluated on human umbilical vein endothelial cells (HUVEC) and breast carcinoma cell line, MDA-MB-231 as models for the anti-angiogenic and anti-tumor activity, respectively.

Test [2] has as its system MDA-MB-231 human breast carcinoma cells. The test can be described thus: MDA-MB-231 in vitro cellular proliferation inhibition (BrdU). Format: cell-based. The conditions noted are these: for antiproliferative activity in MDA-MB-231 cells, in words: breast tumor MDA-MB-231 cells; for fold less activity than 2-methoxyestradiol: MDA-MB-231 tumor cell line, compared to 2-methoxyestradiol. As for the experimental part:
MDA-MB-231 In Vitro Cellular Proliferation Inhibition
MDA-MB-231 Cells and Culture Conditions
MDA-MB-231 human breast carcinoma cells were grown in DMEM containing 10% FCS (Hyclone Laboratories, Logan Utah) and supplemented with 2 mM L-Glutamine, 100 units/ml penicillin, 100 μg/ml streptomycin (Irvine Scientific, Santa Anna, Calif.).
MDA-MB-231 cells were plated at 5000 cells/ml in 96 well plates. After allowing the cells to attach overnight, the appropriate fresh media were applied containing differing concentrations of 2-ME2 or derivatives thereof, as described below. Drug was dissolved in DMSO (Sigma, St. Louis, Mo.) and added to the wells in a volume of 200 μl. Cells were incubated for two days at 37° C.; at 32 h BrdU was added. BrdU cell proliferation assay (a nucleotide analogue with a fluorescein tag that is incorporated into DNA) was performed as described by the manufacturer (Roche). Each condition was prepared in triplicate and the experiments were carried out a minimum of two times. Results are presented and means ±SE.
as §1

For test [3], the system named is chick embryo chorioallantoic membrane. The test can be described thus: chick embryo chorioallantoic membrane (CAM) assay. The conditions noted are these: methylcellulose disc on CAM, after 48 hours. Format: in vivo. Set-up: dose or concentration left out as unconfirmed. As to the method: Anti-proliferative activity is evaluated in situ by testing the ability of an improved estradiol derivative to inhibit the proliferation of new blood vessel cells (angiogenesis). A suitable assay is the chick embryo chorioallantoic membrane (CAM) assay described by Crum et al. Science 230:1375 (1985). See also, U.S. Pat. No. 5,001,116, hereby incorporated by reference, which describes the CAM assay. Briefly, fertilized chick embryos are removed from their shell on day 3 or 4, and a methylcellulose disc containing the drug is implanted on the chorioallantoic membrane. The embryos are examined 48 hours later and, if a clear avascular zone appears around the methylcellulose disc, the diameter of that zone. is measured.

Where [4] appears, read: Table 1, 2-modified estradiol derivatives, read-out: HUVEC (IC50 μM).
The mark [5] stands for this setting: Table 1, 2-modified estradiol derivatives, read-out: MDA-MB-231 (IC50 μM).
The mark [6] stands for this setting: Table 2, 2-methoxyestradiol modified at position 16, 48 h, bFGF, read-out: HUVEC IC50.
Where [7] appears, read: Table 2, 2-methoxyestradiol modified at position 16, two days, read-out: MDA-MB-231 IC50.
[8] abbreviates: text statement b78, read-out: antiproliferative activity IC50 in HUVEC cells.

As usually defined, the IC50 is the point on the concentration scale where inhibition reaches its midpoint. Consider `CC(=O)c1cc2c(cc1O)CC[C@@H]1[C@@H]2CC[C@]2(C)[C@@H](O)CC[C@@H]12` [Example 2-acetyl-E2], for which the “MCF7 Proliferation Index” value in test [1] is 4.4. Further, the results for the IC50 (in the test on HUVEC cells (setting [4]); in test [2] (setting [5])) were 18 µM and 9 µM, respectively. Also, the “antiproliferative activity in HUVEC cells, in words” value with HUVEC cells is on record as “poor activity”. For the same compound, the “antiproliferative activity in MDA-MB-231 cells, in words” value in test [2] is given as “good activity”.

With `COc1cc2c(cc1O)CC[C@@H]1[C@@H]2CC[C@]2(C)[C@@H](O)[C@H](C)C[C@@H]12` [methyl (—CH3), 16α-methyl-2methoxyestradiol], the half-inhibitory concentration (IC50) (in the test on HUVEC cells (setting [6]); in test [2] (setting [7])) was less than 0.5 µM throughout. In addition, the “antiproliferative activity in HUVEC cells, in words” value with HUVEC cells is “greater activity than 2-methoxyestradiol”. The “antiproliferative activity in MDA-MB-231 cells, in words” value in test [2] was “better activity than 2-methoxyestradiol”.

Take `COc1cc2c(cc1O)CC[C@@H]1[C@@H]2CC[C@]2(C)[C@@H](O)[C@@H](CN(C)C)C[C@@H]12` [16β-methyl(dimethylamine)-2-methoxyestradiol]: the IC50 in the test on HUVEC cells (setting [6]) came out at 9 µM; in test [2] (setting [7]) it was 22 µM.

Regarding `C[C@]12CC[C@@H]3c4ccc(O)cc4CC[C@H]3[C@@H]1CC[C@@H]2O` [Example E2, estradiol, reference compound], the “MCF7 Proliferation Index” value in test [1] is on record as 13.1.

Regarding `COc1cc2c(cc1O)CC[C@@H]1[C@@H]2CC[C@]2(C)[C@@H](O)[C@@H](CO)C[C@@H]12` [methanol (—CH2OH), 16β-methanol-2-methoxyestradiol], the IC50 in the test on HUVEC cells (setting [6]) is 15 µM; in test [2] (setting [7]) it was 22 µM.

Regarding `COc1cc2c(cc1O)CC[C@@H]1[C@@H]2CC[C@]2(C)[C@@H](O)[C@@H](C)C[C@@H]12` [methyl, 16β-methyl-2methoxyestradiol], the IC50 in the test on HUVEC cells (setting [6]) worked out at 1.3 µM; in test [2] (setting [7]), 5 µM. Further, in test [2], the “fold less activity than 2-methoxyestradiol” value is “about 5 fold”.

`COc1cc2c(cc1O)CC[C@@H]1[C@@H]2CC[C@]2(C)[C@@H](O)CC[C@@H]12` [Example 2ME2, 2-Methoxyestradiol, reference compound]: the “MCF7 Proliferation Index” value in test [1] stood at 4.4. The “inhibition of cell mitosis and growth of new blood vessels” value in test [3] was “inhibit cell mitosis and the growth of new blood vessels”. For the same compound, the IC50 in test [2] (setting [5]) and in test [2] (setting [7]) was 0.9 µM throughout.

For the compound `CC12CCC3c4cc(C=O)c(O)cc4CCC3C1CCC2O` (stereo not drawn) [Example 2-formyl-E2], in test [1], the “MCF7 Proliferation Index” value is on record as 5.4. In addition, the IC50 in the test with HUVEC cells (setting [4]) is 8 µM; in the test on HUVEC cells (setting [8]), less than 10 µM; in test [2] (setting [5]), greater than 25 µM. In addition, the “antiproliferative activity in MDA-MB-231 cells, in words” value in test [2] was “inactive”.

Consider `C[C@]12CC[C@@H]3c4cc(CO)c(O)cc4CC[C@H]3[C@@H]1CC[C@@H]2O` [2-methyl hydroxy-E2], for which the “MCF7 Proliferation Index” value in test [1] came to 7.4. Moreover, the IC50 in the test on HUVEC cells (setting [4]) is 10 µM; with HUVEC cells (setting [8]), less than 10 µM; in test [2] (setting [5]), greater than 25 µM. Also, the “antiproliferative activity in MDA-MB-231 cells, in words” value in test [2] is “inactive”.

In the case of `CCC[C@H]1C[C@H]2[C@@H]3CCc4cc(O)c(OC)cc4[C@H]3CC[C@]2(C)[C@H]1O` [n-propyl, 16β-n-propyl-2-methoxyestradiol], the IC50 with HUVEC cells (setting [6]) is 9 µM; in test [2] (setting [7]), 36 µM.

Consider `CCC1C[C@H]2[C@@H]3CCc4cc(O)c(OC)cc4[C@H]3CC[C@]2(C)[C@H]1O` (mixture of isomers) [ethyl (—CH2CH3), Racemic 16-ethyl-2-methoxyestradiol], for which the IC50 in the test on HUVEC cells (setting [6]) was 2 µM; in test [2] (setting [7]) it was 3 µM. Also, the “antiproliferative activity in HUVEC cells, in words” value with HUVEC cells was “about equipotent to 2-methoxyestradiol”. The “fold less activity than 2-methoxyestradiol” value in test [2] is roughly 3 fold.

In the case of `CCCC[C@H]1C[C@H]2[C@@H]3CCc4cc(O)c(OC)cc4[C@H]3CC[C@]2(C)[C@H]1O` [n-butyl, 16β-n-butyl-2-methoxyestradiol], the IC50 stood at 9 µM with HUVEC cells (setting [6]) and 39 µM in test [2] (setting [7]).

As to 16β-isobutyl-2-methoxyestradiol, the IC50 in the test with HUVEC cells (setting [6]) amounted to 7.5 µM; in test [2] (setting [7]) it was 40 µM. Moreover, the “fold difference between tumor cell and endothelial cell antiproliferative activity (selectivity)” value in test [2] (MDA-MB-231 versus HUVEC) is recorded as 5 fold.

Consider `CCC[C@@H]1C[C@H]2[C@@H]3CCc4cc(O)c(OC)cc4[C@H]3CC[C@]2(C)[C@H]1O` [n-propyl (—CH2CH2CH3), 16α-n-propyl-2-methoxyestradiol], for which the IC50 in the test with HUVEC cells (setting [6]) was 6 µM; in test [2] (setting [7]), greater than 50 µM. The “antiproliferative activity in HUVEC cells, in words” value in the test with HUVEC cells is recorded as “good activity”.
